The source of these data is patent US9156796B2, “Benzoimidazole-carboxylic acid amide derivatives as APJ receptor modulators” (SANOFI, priority 2013, dated 2015).

Broadly, the pEC50 is the negative decadic logarithm of the EC50, by convention in mol/L.

pEC50: −log10 of the molar value.

For this assay, the target named is T1, human apelin receptor (Homo sapiens, UniProt P35414).
T1 construct: expressed in transfected cells
T1 sequence (P35414 1-380): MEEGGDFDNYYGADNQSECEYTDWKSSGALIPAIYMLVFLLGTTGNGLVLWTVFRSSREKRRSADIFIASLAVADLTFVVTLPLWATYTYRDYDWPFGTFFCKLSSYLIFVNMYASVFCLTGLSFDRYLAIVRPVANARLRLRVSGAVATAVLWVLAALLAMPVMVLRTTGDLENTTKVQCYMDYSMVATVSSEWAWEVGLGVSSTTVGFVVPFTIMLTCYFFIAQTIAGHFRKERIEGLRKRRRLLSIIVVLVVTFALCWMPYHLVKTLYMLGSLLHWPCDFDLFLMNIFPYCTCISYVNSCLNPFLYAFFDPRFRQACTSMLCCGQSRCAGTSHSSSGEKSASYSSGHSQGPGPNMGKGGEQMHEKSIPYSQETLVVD
Put plainly: Determination of agonism on the human apelin receptor by a calcium fluorescence assay (FLIPR). It counts as cell-based. As to conditions: HEK293 cells stably transfected with human apelin receptor and Giaq protein, Fluo-4 calcium fluorescence, read-out: EC50 (APJ agonism). In short, it runs like this:
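Agonist EC50s come from peak intracellular calcium transients recorded by FLIPR Tetra, scaled to the 1 μM apelin-13 maximum per plate. Test system: HEK293 stably transfected with human apelin receptor plus Giaq, Fluo-4-loaded (4 μM, 1 h, 37 °C, pH 7.4 buffer with probenecid); ≥7 concentrations, triplicates.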

Regarding `CCC(CC)n1c(Cc2cccs2)nc2cc(C(=O)N[C@@H](CC(C)C)C(=O)NC3CCN(c4ccccn4)CC3)ccc21` [Example 293, 1-(1-Ethyl-propyl)-2-thiophen-2-ylmethyl-1H-benzoimidazole-5-carboxylic acid [(S)-3-methyl-1-(3,4,5,6-tetrahydro-2H-[1,2′]bipyridinyl-4-ylcarbamoyl)-butyl]-amide], the pEC50 was 5.58.
The same measure for `C[C@H]1CCCC[C@@H]1n1c(Cc2cccs2)nc2cc(C(=O)NC(CC(=O)O)CC3CCCCC3)ccc21` (stereo partly drawn) [Example 52, 4-Cyclohexyl-3-{[1-((1S,2S)-2-methyl-cyclohexyl)-2-thiophen-2-ylmethyl-1H-benzoimidazole-5-carbonyl]-amino}-butyric acid]: 4.91; for `CCC(CC)n1c(Cc2cccs2)nc2cc(C(=O)N[C@@H](CC(C)C)C(=O)NCCCCN(CC)CC)ccc21` [Example 261, 1-(1-Ethyl-propyl)-2-thiophen-2-ylmethyl-1H-benzoimidazole-5-carboxylic acid [(S)-1-(4-diethylamino-butylcarbamoyl)-3 methyl-butyl]-amide]: 6.57; for `CCOC[C@H](CC(C)C)NC(=O)c1ccc2c(c1)nc(Cc1cccs1)n2C(CC)CC` [Example 208, 1-(1-Ethyl-propyl)-2-thiophen-2-ylmethyl-1H-benzoimidazole-5-carboxylic acid ((S)-1-ethoxymethyl-3-methyl-butyl)-amide]: 5.94.
As for `C[C@@H]1CCCC[C@H]1n1c(Cc2cncs2)nc2cc(C(=O)N[C@@H](CC3CCCCC3)C(=O)O)ccc21` [Example 37, (S)-3-Cyclohexyl-2-{[1-((1R,2R)-2-methyl-cyclohexyl)-2-thiazol-5-ylmethyl-1H-benzoimidazole-5-carbonyl]-amino}-propionic acid], the pEC50 is 6.05.
As to `CCC(CC)n1c(Cc2cccs2)nc2cc(C(=O)N[C@@H](CC(C)C)C(=O)N3CCC(COC)CC3)ccc21` [Example 374, 1-(1-Ethyl-propyl)-2-thiophen-2-ylmethyl-1H-benzoimidazole-5-carboxylic acid [(S)-1-(4-methoxymethyl-piperidine-1-carbonyl)-3-methyl-butyl]-amide], the pEC50 is 5.66.
Regarding `CCC(CC)n1c(Cc2cccs2)nc2cc(C(=O)NC(C)(CC(C)C)C(=O)O)ccc21` (single isomer, unassigned) [Example 441], the pEC50 was 5.82.
Take `CC(C)C[C@H](NC(=O)c1ccc2c(c1)nc(Cc1cccs1)n2-c1ccccc1)C(=O)O` [Example 132, (S)-4-Methyl-2-[(1-phenyl-2-thiophen-2-ylmethyl-1H-benzoimidazole-5-carbonyl)-amino]-pentanoic acid]: the pEC50 is 6.15.
With `CCC(CC)n1c(Cc2cccs2)nc2cc(C(=O)N[C@@H](CC(C)C)C(=O)N3CCN(c4ccccn4)CC3)ccc21` [Example 312, 1-(1-Ethyl-propyl)-2-thiophen-2-ylmethyl-1H-benzoimidazole-5-carboxylic acid [(S)-3-methyl-1-(4-pyridin-2-yl-piperazine-1-carbonyl)-butyl]-amide], the pEC50 was 5.53.
The same measure for `CCC(CC)n1c(Cn2cccn2)nc2cc(C(=O)N[C@H](CC(=O)O)CC(C)C)ccc21` [Example 49, (S)-3-{[1-(1-Ethyl-propyl)-2-pyrazol-1-ylmethyl-1H-benzoimidazole-5-carbonyl]-amino}-5-methyl-hexanoic acid]: 5.15; for `CCC(CC)n1c(Cc2cccs2)nc2cc(C(=O)N[C@@H](CC(C)C)C(=O)N(C)C)ccc21` [Example 357, 1-(1-Ethyl-propyl)-2-thiophen-2-ylmethyl-1H-benzoimidazole-5-carboxylic acid ((S)-1-dimethyl-carbamoyl-3-methyl-butyl)-amide]: 6.41.
Turning to `CCC(CC)n1c(Cc2cccs2)nc2cc(C(=O)NC(C)(Cc3ccccc3)C(=O)O)ccc21` (stereo not shown) [Example 4, 2-{[1-(1-Ethyl-propyl)-2-thiophen-2-ylmethyl-1H-benzoimidazole-5-carbonyl]-amino}-2-methyl-3-phenyl-propionic acid], the pEC50 was 4.78.
As for `CCC(CC)n1c(CC2CCCO2)nc2cc(C(=O)N[C@@H](CC(C)C)C(=O)O)ccc21` (stereo partly drawn) [Example 80, (S)-2-{[1-(1-Ethyl-propyl)-2-(tetrahydro-furan-2-ylmethyl)-1H-benzoimidazole-5-carbonyl]-amino}-4-methyl-pentanoic acid], the negative logarithm of the EC50 (pEC50) was 5.78.
As for `CCC(CC)n1c(Cc2cccs2)nc2cc(C(=O)N[C@@H](CC(C)C)C(=O)NC3COC4(CCCC4)C3)ccc21` (stereo partly drawn) [Example 398, 1-(1-Ethyl-propyl)-2-thiophen-2-ylmethyl-1H-benzoimidazole-5-carboxylic acid [(S)-3-methyl-1-(1-oxa-spiro[4.4]non-3-ylcarbamoyl)-butyl]-amide], the pEC50 was 5.26.
`CCC(CC)n1c(Cc2cccs2)nc2cc(C(=O)NC(CC3CCC(C)CC3)C(=O)O)ccc21` (stereo not shown) [Example 36, 2-{[1-(1-Ethyl-propyl)-2-thiophen-2-ylmethyl-1H-benzoimidazole-5-carbonyl]-amino}-3-(4-methyl-cyclohexyl)-propionic acid]: the pEC50 was 5.90.
With `CCC(CC)n1c(Cc2cccs2)nc2cc(C(=O)N[C@@H](Cc3ccc(Cl)c(Cl)c3)C(=O)O)ccc21` [Example 32, (S)-3-(3,4-Dichloro-phenyl)-2-{[1-(1-ethyl-propyl)-2-thiophen-2-ylmethyl-1H-benzoimidazole-5-carbonyl]-amino}-propionic acid] the figure was 5.34; with `CCC(CC)n1c(Cc2cscn2)nc2cc(C(=O)N[C@H](C(=O)O)[C@@H](C)CC)ccc21` [Example 85, (2S,3S)-2-{[1-(1-Ethyl-propyl)-2-thiazol-4-ylmethyl-1H-benzoimidazole-5-carbonyl]-amino}-3-methyl-pentanoic acid], 5.11; with `CCC(CC)n1c(Cc2cccs2)nc2cc(C(=O)NC3(C(=O)O)CCC(C)CC3)ccc21` (stereo not shown) [Example 34, 1-{[1-(1-Ethyl-propyl)-2-thiophen-2-ylmethyl-1H-benzoimidazole-5-carbonyl]-amino}-4-methyl-cyclohexanecarboxylic acid], 6.31.
Consider `CCC(CC)n1c(Cc2cccs2)nc2cc(C(=O)N[C@H](Cc3nnn[nH]3)CC(C)C)ccc21` [Example 472, 1-(1-Ethyl-propyl)-2-thiophen-2-ylmethyl-1H-benzoimidazole-5-carboxylic acid [(S)-3-methyl-1-(1H-tetrazol-5-ylmethyl)-butyl]-amide], for which the pEC50 was 7.42.
As to `CC1CCCCC1n1c(Cc2cccs2)nc2cc(C(=O)N[C@@H](CC3CCCCC3)C(=O)O)ccc21` (single isomer, unassigned) [Example 425], the pEC50 was 5.57.
Consider `CCC(CC)n1c(Cc2cccs2)nc2cc(C(=O)N[C@@H](CC(C)C)C(=O)O)ccc21` [Example 114, (S)-2-{[1-(1-Ethyl-propyl)-2-thiophen-2-ylmethyl-1H-benzoimidazole-5-carbonyl]-amino}-4-methyl-pentanoic acid], for which the pEC50 was 6.73.
As for `CCC(CC)n1c(Cc2cccs2)nc2cc(C(=O)N[C@@H](CC(C)C)C(=O)NCCCN(C)C)ccc21` [Example 224, 1-(1-Ethyl-propyl)-2-thiophen-2-ylmethyl-1H-benzoimidazole-5-carboxylic acid [(S)-1-(3-dimethylamino-propylcarbamoyl)-3-methyl-butyl]-amide], the pEC50 was 6.52.
With `CCC(CC)n1c(Cc2cscn2)nc2cc(C(=O)N[C@H](CC(=O)O)CC(C)C)ccc21` [Example 98, (S)-3-{[1-(1-Ethyl-propyl)-2-thiazol-4-ylmethyl-1H-benzoimidazole-5-carbonyl]-amino}-5-methyl-hexanoic acid] the figure was 5.66.
As to `CCC[C@H](NC(=O)c1ccc2c(c1)nc(Cc1cccs1)n2C1CCCCC1C(F)(F)F)C(=O)O` (stereo partly drawn) [Example 88, (S)-2-{[2-Thiophen-2-ylmethyl-1-(2-trifluoromethyl-cyclohexyl)-1H-benzoimidazole-5-carbonyl]-amino}-pentanoic acid], the pEC50 was 6.12.
The same measure for `CCC(CC)n1c(Cc2cccs2)nc2cc(C(=O)NC(CC(C)C)C(C)(C)C(=O)O)ccc21` (single isomer, unassigned) [Example 465]: 6.02.
Take `CCCCC(NC(=O)c1ccc2c(c1)nc(Cc1cccs1)n2C(CC)CC)C(C)(C)C(=O)O` (stereo not shown) [Example 58, 3-{[1-(1-Ethyl-propyl)-2-thiophen-2-ylmethyl-1H-benzoimidazole-5-carbonyl]-amino}-2,2-dimethyl-heptanoic acid]: the negative-log EC50 (pEC50) was 6.76.
With `CC(C)C[C@H](NC(=O)c1ccc2c(c1)nc(Cc1ccoc1)n2C1CCCCC1)C(=O)O` [Example 138, (S)-2-[(1-Cyclohexyl-2-furan-3-ylmethyl-1H-benzoimidazole-5-carbonyl)-amino]-4-methyl-pentanoic acid] the figure was 5.53; with `CCC(CC)n1c(Cc2cccs2)nc2cc(C(=O)N[C@H](CSc3nnc[nH]3)CC(C)C)ccc21` [Example 483, 1-(1-Ethyl-propyl)-2-thiophen-2-ylmethyl-1H-benzoimidazole-5-carboxylic acid [(S)-3-methyl-1-(4H-[1,2,4]triazol-3-ylsulfanylmethyl)-butyl]-amide], 5.68.
